Consider seven compounds from article PMC6620467, “Gram-scale synthesis of FICZ, a photoreactive endogenous ligand of the aryl hydrocarbon receptor” (Scientific Reports, 2019).

Like-named read-outs stand apart in the source and are kept apart here.

One data set deals with T1, human AhR (Homo sapiens, UniProt P35869).
T1 sequence (P35869 11-848): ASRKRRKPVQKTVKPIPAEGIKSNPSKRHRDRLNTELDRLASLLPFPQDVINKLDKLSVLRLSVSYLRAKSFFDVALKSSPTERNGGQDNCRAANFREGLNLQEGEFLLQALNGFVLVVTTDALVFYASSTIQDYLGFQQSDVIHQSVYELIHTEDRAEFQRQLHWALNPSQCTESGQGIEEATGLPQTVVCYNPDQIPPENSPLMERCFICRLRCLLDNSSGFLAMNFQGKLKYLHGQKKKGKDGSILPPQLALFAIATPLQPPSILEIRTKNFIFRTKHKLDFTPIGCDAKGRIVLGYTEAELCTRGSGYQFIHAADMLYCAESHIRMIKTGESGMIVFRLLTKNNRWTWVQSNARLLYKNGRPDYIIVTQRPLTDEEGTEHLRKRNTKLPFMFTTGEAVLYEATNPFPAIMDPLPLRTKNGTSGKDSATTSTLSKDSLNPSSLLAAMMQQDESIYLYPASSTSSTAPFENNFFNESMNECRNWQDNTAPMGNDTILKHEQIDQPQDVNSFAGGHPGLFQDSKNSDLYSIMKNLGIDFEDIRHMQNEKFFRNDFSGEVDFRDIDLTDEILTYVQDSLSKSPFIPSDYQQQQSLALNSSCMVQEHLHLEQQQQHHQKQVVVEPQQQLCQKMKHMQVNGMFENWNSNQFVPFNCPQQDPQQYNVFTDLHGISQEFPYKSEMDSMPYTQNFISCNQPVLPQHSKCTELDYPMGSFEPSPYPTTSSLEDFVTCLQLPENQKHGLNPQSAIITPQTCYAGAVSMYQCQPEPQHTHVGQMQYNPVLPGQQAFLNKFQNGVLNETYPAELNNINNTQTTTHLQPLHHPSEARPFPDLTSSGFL
Put plainly: cyp1a1 promoter β-lactamase reporter gene assay for AhR activation (CYP1A1-bla-LS180 cells). For orientation: In a reporter assay the amount or activity of a reporter protein is the signal.

Data set [1] can be described thus: Photostability test of DMSO-d6 solutions by 1H NMR (maleic acid internal reference). In kind it is physicochemical.
Procedure: Maleic acid was employed as an internal NMR reference.
The solution was analyzed by ^1H NMR as time point zero. 0.5 mL of the solution was placed into separate ICH 20 mL Flint clear glass bottles that were irradiated in a photostability chamber with illuminance set to 11000 lux as measured by a digital light meter. The contents of separate bottles were checked by ^1H NMR at 1 h, 2 h, 3 h, 4 h, 5 h, 7 h, 10 h, 16 h, and 24 h. […] A parallel experiment was run under the same conditions with ICZ (12.4 mg) and maleic acid (6.4 mg) in 5.1 mL of DMSO-d6 and stability data collected at 1 h, 2 h, 4 h, 6 h, 12 h, 18 h, and 24 h.
The solution was analyzed by ^1H NMR as time point zero. 0.5 mL of the solution was placed into separate ICH 20 mL Flint clear glass bottles that were placed in direct sunlight with illuminance of 63000 lux as measured by a digital light meter (from 1:00 PM to 3:40 PM on March 17, 2015, a sunny day with minimal clouds in Durham, NC, USA). The contents of separate bottles were checked by ^1H NMR at 1.5 min, 3 min, 10 min, 30 min, and 93 min.
The solution was analyzed by NMR as time point zero. The solution was then divided into four ICH 20 ml Flint clear glass bottles: Bottle A was exposed to air and was unprotected from the bright light; Bottle B: was flushed with nitrogen and left unprotected from the bright light; Bottle C was exposed to air but covered by aluminum-foil; and Bottle D was flushed with nitrogen and covered by aluminum foil. All bottles were placed in a photostability chamber with illuminance set to 11100 lux. The contents of each bottle were checked by ^1H NMR at 1 d, 4 d, 8 d, 14 d and 21 d using the quantification procedure described in Method 1.

In general, EC50 refers to the concentration giving half of the maximal effect. A word on the half-life: it is how long it takes for the measured level to halve.

Source text for human AhR: We employed a commercially available assay for AhR ligands in which a cell line had been engineered to express a reporter gene composed of the cyp1a1 promoter driving expression of a β-lactamase reporter. AhR ligands were detected by the increased expression of β-lactamase, which was quantified using a fluorescent substrate (see Materials and methods).
Intestinal human colon adenocarcinoma LS180 cells stably transfected with a β-lactamase reporter gene downstream of the cyp1a1 promoter were obtained from Invitrogen (catalog number K1678) and were used in accordance with the protocol described at https://www.thermofisher.com/document-connect/document-connect.html?url=https%3A%2F%2Fassets.thermofisher.com%2FTFS-Assets%2FLSG%2Fmanuals%2Fgeneblazer_cyp1a1blals0180_man.pdf, but adapted to run in 384-well plates.
CYP1A1-bla-LS180 cells (Invitrogen, catalog number K1678) were suspended in assay media (OptiMEM, 1% charcoal stripped serum, 1 mM sodium pyruvate, 0.1 mM NEAA) at a density of 20000 cells/mL. The compounds were dissolved in DMSO at a concentration of 10 mM. 0.5 mL of the compound solutions were added to a 384-well black, clear bottom, cell-coat assay plate (Griener Bio-one). […] A 50 μL aliquot of cell suspension was added to each well, and the compound plate was incubated overnight at 37 °C in 5% CO2. The plate was equilibrated at room temperature for 30 min before adding 10 μL of the LiveBLAzer™ FRET B/G substrate solution (Life Technologies) to each well. The plate was incubated for 90 min at room temperature in the dark before being read on a Perkin Elmer Envision using the bottom read fluorescence program with excitation at 400 nm and detection at 460/535 nm.

The compound `O=C(O)c1c2[nH]c3ccccc3c2cc2[nH]c3ccccc3c12` [CICZ (9), 5,11-Dihydroindolo[3,2-b]carbazole-6-carboxylic acid] returned an EC50 at human AhR of 400 ± 100 nM. The “potency as AhR agonist relative to FICZ (1), times less potent” value at human AhR (cyp1a1 reporter gene assay) is reported as 40 times.

Compound `CCOC(=O)c1c2[nH]c3ccccc3c2cc2[nH]c3ccccc3c12` [Compound 10, Ethyl 5,11-dihydroindolo[3,2-b]carbazole-6-carboxylate] came in with an EC50 at human AhR of 160 ± 40 nM.

`OCc1c2[nH]c3ccccc3c2cc2[nH]c3ccccc3c12` [Compound 11, (5,11-Dihydroindolo[3,2-b]carbazol-6-yl)methanol]: on human AhR, the response was half-maximal at 160 ± 90 nM (EC50).

On to `O=C1c2[nH]c3ccccc3c2C(=O)c2[nH]c3ccccc3c21` [Compound 13, Indolo[3,2-b]carbazole-6,12-dione], for which the response on human AhR was half-maximal at 70 ± 15 nM (EC50). Further, the “decrease in potency for activation of AhR versus FICZ (1)” value on human AhR (cyp1a1 reporter gene assay) was “at least 7 fold”.

With `O=Cc1c2[nH]c3ccccc3c2cc2[nH]c3ccccc3c12` [FICZ (1), 6-Formylindolo[3,2-b]carbazole], the “time to complete decomposition” value in data set [1] (Condition A: DMSO solution, bright light (11000 lux) and air) is not above 1 days. In addition, in data set [1] (DMSO solution, air, protected from light with aluminum foil, over 28 d), the “decomposition, Condition C” value is reported as “further slowed, but did not prevent the decomposition”. In data set [1] (DMSO solution, bottle flushed with nitrogen, 11000 lux light, over 28 d), the “decomposition, Condition B” value is “much slower”. The “decomposition, Condition D” value in data set [1] (DMSO solution, removal of air and protection from light, over 28 d) is recorded as “slowest rate of decomposition”. Further, the half-life at 3 mg/mL in data set [1] (DMSO-d6 solution in clear Flint glass bottle, DMSO-d6 solution, air and light, 11000 lux, clear Flint bottle, read-out: half-life of decomposition (converted)) was approximately 3 h. Moreover, the half-life at 2.125 mg/mL in data set [1] (DMSO-d6 solution in clear Flint glass bottle, DMSO-d6 solution, air, direct sunlight 63000 lux, read-out: half-life of decomposition) is approximately 0.5 h. The “stability as pure solid” value in data set [1] (pure solid) is listed as “stable”.

Turning to `c1ccc2c(c1)[nH]c1cc3c(cc12)[nH]c1ccccc13` [ICZ (12), reference compound], in data set [1] (DMSO-d6 solution, air and light, 11000 lux, identical conditions), the “decomposition rate relative to FICZ (1), times slower” value was “at least 10 times”. Moreover, on human AhR, the EC50 came out at 30 ± 10 nM.

As for `Clc1cc2c(cc1Cl)Oc1cc(Cl)c(Cl)cc1O2` [TCDD, reference compound], the EC50 on human AhR (read-out: EC50 of standard AhR ligand in cyp1a1 reporter assay, control experiments, data not shown) was found to be 0.31 nM.
